Results as given in paper PMC9317316, “Synthesis and Evaluation of Some New 4H-Pyran Derivatives as Antioxidant, Antibacterial and Anti-HCT-116 Cells of CRC, with Molecular Docking, Antiproliferative, Apoptotic and ADME Investigations” (Pharmaceuticals, 2022).
Where two headings read alike, the source gives them in different places.

Key:
[1] = DPPH radical scavenging assay; details: for IC50: 0.03 to 1 mg/mL, 1 h, mean ± SD, triplicate, read-out: IC50 (mM) for DPPH Scavenging Potency
Protocol: The IC50 values for DPPH were calculated from the plot of the scavenging effect against the compound concentration.
The compounds’ capacities to scavenge the stable radical 1,1 diphenyl-2-picrylhydrazyl (DPPH) formed in solution by donation of a hydrogen atom or an electron was investigated according to the method described by Bersuder and coworkers. Due to the fact that the initial blue/purple solution of diphenyl picrylhydrazine changes to yellow in the presence of compounds with a capacity to scavenge DPPH free radicals, this reaction is used as a measure of a compound’s ability to scavenge any free radical. Briefly, a 0.5 mL volume of DPPH ethanolic solution was mixed with an equal volume of each sample concentration (0.03 to 1 mg/mL), shaken strongly and incubated at room temperature for 1 h in darkness. The absorbance of the residual DPPH radicals was measured at 519 nm and compared to that of the control (without the tested compound). DPPH radical scavenging was calculated using the following formula: Scavenging effect (%) = (1 − Acompound/AControl) × 100, where Acompound and Acontrol are the absorbances of the tested compound and of the control, respectively. A plot of the scavenging effect (%) versus the sample concentration was also performed to determine the compound concentration providing 50% inhibition (IC50).

[2] = system: E. faecalis (ATCC 29122); experiment: Antibacterial agar diffusion method (inhibition zone); format: cell-based
Protocol: (§1) The results for the in vitro antibacterial properties of the synthesized compounds against five Gram-positive and four Gram-negative human-pathogenic strains, which were assessed by both the agar diffusion method (based on inhibition zone (IZ)) and the broth dilution bioassay (for the determination of the half-maximal inhibitory concentration (IC50) values), using ampicillin as the reference antibiotic drug, are shown in Table 2 and Table 3.
(§2) The antibacterial activity of all synthesized compounds was evaluated against the Gram-negative strains E. coli (ATCC 25966), K. pneumonia (ATCC 700603), P. aeruginosa (ATCC 27853) and S. enteric (ATCC 43972) and against the Gram-positive strains B. cereus (ATCC 14579), B. subtilis (ATCC 6633), E. faecalis (ATCC 29122), S. aureus (ATCC 25923) and S. epidermidis (ATCC 14990), using the agar diffusion method through measuring the appearance of the inhibition zone on the surface of the top agar, as reported by Berghe and Vlietinck. Ampicillin (10 µg/well) was used as the positive reference standard. Bacterial viability was also investigated by determining the colony-forming ability (CFU) of bacteria incubated at different time intervals without or with appropriate amounts of the compound, which were mixed with 2 ×10^7 CFU/mL in sterile BHI and incubated under shaking for 60 min at 37 °C. Samples were serially diluted into sterile BHI, streaked onto media agar plates and incubated for 24 h at 37 °C. The antibacterial potency of the tested compounds was expressed as the residual number of CFUs with reference to the initial inoculums. The results presented as the half-maximal (50 %) inhibitory concentration (IC50) values are the means of three different measurements.

[3] = system: S. aureus (ATCC 25923); experiment: as above; format: cell-based
Protocol: as §1, §2

[4] = system: E. coli (ATCC 25966); experiment: as above; format: cell-based; details: E. coil (ATCC 25966)
Protocol: as §1, §2

[5] = system: S. enteric (ATCC 43972); experiment: as above; format: cell-based
Protocol: as §1, §2

[6] = system: B. subtilis (ATCC 6633); experiment: as above; format: cell-based
Protocol: as §1, §2

[7] = system: B. cereus (ATCC 14579); experiment: as above; format: cell-based
Protocol: as §1, §2

[8] = system: K. pneumonia (ATCC 700603); experiment: as above; format: cell-based
Protocol: as §1, §2

[9] = system: P. aeruginosa (ATCC 27853); experiment: as above; format: cell-based
Protocol: as §1, §2

[10] = system: S. epidermidis (ATCC 14990); experiment: as above; format: cell-based
Protocol: as §1, §2

[11] = Reducing power assay (FRAC, Fe3+ to Fe2+); details: 0-1 mg/mL, absorbance 700 nm
Protocol: Secondly, FRAC was determined over the concentration range of 0.0−1 mg/mL via monitoring Fe^3+−Fe^2+ transformation in the presence of the studied compounds and the reference antioxidant BHT to estimate the values of efficient concentration (EC50), expressed in mM.
The reducing power of the studied compounds was assessed according to Oyaizu’s method. Briefly, different concentrations (ranging from 0 to 1 mg/mL) of each tested compound were first mixed with 1 mL of 0.2 M sodium phosphate buffer (pH 6.6) and 1 mL of 1% potassium ferricyanide (K3Fe(CN)6) and incubated at 50 °C for 20 min. After the addition of 1.25 mL of 20% trichloroacetic acid (TCA), the mixture was centrifuged for 10 min at 3000 rpm and the upper layer solution was then mixed with 0.5 mL of 0.1% fresh ferric chloride and an equal volume of deionized water. Finally, the absorption of the resulting mixture was measured at 700 nm using a UV spectrophotometer against distilled water as the blank, while butylated hydroxytoluene (BHT) was used as a positive control. The sample ferric reducing power capability was indicated by increased absorbance.

[12] = system: E. faecalis (ATCC 29122); experiment: Antibacterial viability (CFU) assay, IC50; format: cell-based; details: Enterococcus faecalis, ATCC29122
Protocol: as §1, §2

[13] = system: S. aureus (ATCC 25923); experiment: Antibacterial viability (CFU) assay, IC50; format: cell-based; details: Staphylococcus aureus, ATCC25923
Protocol: as §1, §2

[14] = system: E. coli (ATCC 25966); experiment: Antibacterial viability (CFU) assay, IC50; format: cell-based; details: Escherichia coli, ATCC25966; E. coil (ATCC 25966)
Protocol: as §1, §2

[15] = system: S. enteric (ATCC 43972); experiment: Antibacterial viability (CFU) assay, IC50; format: cell-based; details: read-out: IC50
Protocol: as §1, §2

[16] = system: B. subtilis (ATCC 6633); experiment: Antibacterial viability (CFU) assay, IC50; format: cell-based; details: Bacillus subtilis, ATCC6633, B. subtilis (ATCC 6633)
Protocol: as §1, §2

[17] = system: B. cereus (ATCC 14579); experiment: Antibacterial viability (CFU) assay, IC50; format: cell-based; details: Bacillus cereus, ATCC14579
Protocol: as §1, §2

[18] = system: K. pneumonia (ATCC 700603); experiment: Antibacterial viability (CFU) assay, IC50; format: cell-based; details: Klebsiella pneumoniae, ATCC700603
Protocol: as §1, §2

[19] = system: P. aeruginosa (ATCC 27853); experiment: Antibacterial viability (CFU) assay, IC50; format: cell-based; details: Pseudomonas aeruginosa, ATCC27853
Protocol: as §1, §2

[20] = system: S. epidermidis (ATCC 14990); experiment: Antibacterial viability (CFU) assay, IC50; format: cell-based; details: Staphylococcus epidermidis, ATCC14990
Protocol: as §1, §2

[21] = system: HCT-116 cells; experiment: Cell viability (cytotoxicity, LDH release) assay; format: cell-based; details: Homo sapiens, 24 h; for viability at 100 µg/mL: read-out: percent of viable cells
Protocol: The synthesized compounds were also examined at four concentrations (10, 25, 50 and 100 µg/mL) for their cytotoxic effects on human colorectal cancer HCT-116 cells after their incubation together for 24 h.
Cytotoxic potency was examined for a human colon cancer cell line HCT-116 (American Type Culture Collection; Manassas, VA, USA) using various amounts of each compound (10, 25, 50 and 100 µg). Samples were diluted in Dulbecco’s Modified Eagle’s Medium, consisting of 10% Fetal Bovine Serum, and added to cells grown and cultured for 24 h in a 5% CO2-humidified incubator at 37 °C. Then, the activity of lactate dehydrogenase released from damaged cells was determined in the collected supernatant aliquots using an ELISA endpoint assay (Benchmark Plus, Bio-Rad, Hercules, CA, USA). As positive and negative controls, respectively, 0.1% Triton X-100 in the assay medium and the assay medium only were used. Cell viability, shown as mean values ± SDs (n = 3), was expressed as a relative percentage of the OD values determined at 600 nm in compound-treated cells and the control.

[22] = read-out: Mean IC50 (µM) of cytotoxicity
[23] = read-out: Mean IC50 (µg/mL) of cytotoxicity

Row | Structure (SMILES) | IC50 [1] | DPPH Radical Scavenging Effenciency (%) at 1 mg/mL [1] | melting point | IZ (mm) [2] | IZ (mm) [3] | IZ (mm) [4] | IZ (mm) [5] | IZ (mm) [6] | IZ (mm) [7] | IZ (mm) [8] | IZ (mm) [9] | IZ (mm) [10] | EC50 [11] | IC50 [12] | IC50 [13] | IC50 [14] | IC50 [15] | IC50 [16] | IC50 [17] | IC50 [18] | also measured
1 | COC(=O)C1=C(C)OC(N)=C(C#N)C1c1ccccc1C(=O)O (centres unmarked) [4a, 6-Amino-4-(2-carboxy-phenyl)-5-cyano-2-methyl-4H-pyran-3-carboxylic acid methyl ester] | 2.29 ± 0.134 mM | 24.15 ± 1.62% | 216 to 218 °C | 9.00 ± 1.41 mm | 8.00 ± 1.41 mm | 4.5 ± 0.71 mm | 4.5 ± 0.7 mm | 5.20 ± 0.28 mm | 7.50 ± 0.71 mm | 2.5 ± 0.7 mm | 5.5 ± 0.7 mm | 9.50 ± 0.71 mm | 827 ± 45 µM | 49.6 ± 1.81 µM | 41.2 ± 2.48 µM | 138 ± 6.68 µM | 120 ± 1.91 µM | 64.4 ± 3.37 µM | 71.8 ± 2.04 µM | 131 ± 3.5 µM | IC50 [19]: 37.6 ± 0.5 µM; IC50 [20]: 42.3 ± 1.33 µM; viability at 100 µg/mL [21]: 46%; IC50 [21, 22]: 165 ± 14.4 µM; IC50 [21, 23]: 52 ± 4.54 µg/mL
2 | COc1cccc(C2C(C#N)=C(N)OC(C)=C2C(=O)OCc2ccccc2)c1[N+](=O)[O-] (centres unmarked) [4c, 6-Amino-5-cyano-4-(3-methoxy-2-nitro-phenyl)-2-methyl-4H-pyran-3-carboxylic acid benzyl ester] | 2.24 ± 0.05 mM | 57.10 ± 1.56% | 190 to 192 °C | 10.00 ± 1.41 mm | 15.50 ± 0.71 mm | 2.5 ± 0.71 mm | 8.5 ± 0.7 mm | 11.00 ± 1.41 mm | 14.00 ± 1.41 mm | 3.5 ± 0.7 mm | 7.5 ± 0.7 mm | 16.65 ± 0.50 mm | 1230 ± 67 µM | 41.1 ± 2.18 µM | 37 ± 2.02 µM | 93.7 ± 4.98 µM | 100 ± 2.61 µM | 46.3 ± 1.68 µM | 44.5 ± 0.83 µM | 112 ± 1.42 µM | IC50 [19]: 85.9 ± 2.61 µM; IC50 [20]: 30.4 ± 1 µM; viability at 100 µg/mL [21]: 11 to 32.5%; IC50 [21, 22]: 102 ± 4.82 µM; IC50 [21, 23]: 43 ± 2.03 µg/mL
